The values below come from patent publication US20230213527A1, “COMPOSITIONS AND METHODS FOR POLYPEPTIDE ANALYSIS” (Quantum-Si Incorporated, priority 2021, published 2023).

The test system of one test is amino acid recognizers. The test is described as follows: Sequencing of β-amyloid wild type and variant peptides, average pulse width. The class given is binding. To be noted: for Average Pulse Width, tripeptide LVX: when sequencing L. The source says: Aspects of the technology described herein may be used for protein preparation, peptide library preparation, peptide sequencing and peptide profiling of synthetic samples of ß-amyloid. In this example, the wild type (LVFFAE (SEQ ID NO: 827)) and variants (17LVFFAK22 (SEQ ID NO: 828), 17LVFFGK22 (SEQ ID NO: 829), 17LVFFAG22 (SEQ ID NO: 830), and 17LVPFAE22 (SEQ ID NO: 831)) of β-amyloid were digested and labeled for further analysis. Alternatively, β-amyloid may be purified from common sources, such as cerebrospinal fluid (CSF), for downstream analysis.
A chip including aspects of the technology described herein was used for the downstream sequencing of the sample material. The chip contained millions of wells, each of which acted as an independent sequencing machine. Once the sample was loaded, cloud technology was used to set up the sequencing run and collect all the data for visualization. Once collected in the cloud, a set of proprietary algorithms, which can identify amino acids based on the specialized optical pulse patterns of each binding event, determined the sequence of the peptide and mapped that sequence back to a specific protein or protein variant.
Here, the protein sequencing technology and analysis pipeline was successfully used to distinguish a variety of clinically significant ß-amyloid point mutations. The sequencing traces containing pulse patterns of the variants, 17LVFFAK22 (SEQ ID NO: 828), 17LVFFGK22 (SEQ ID NO: 829), 17LVFFAG22 (SEQ ID NO: 830), and 17LVPFAE22 (SEQ ID NO: 831), were compared to the wild type, 17LVFFAE22 (SEQ ID NO: 827). Software automatically identified pulses containing the same intensity, lifetime, and kinetics, which determined a recognition segment for a specific amino acid. Each recognition segment was color coded based on the N-terminal amino acid, and the collection of recognition segments provided a characteristic signature of the peptide.
Time domain sequencing functionality can observe sequence changes indirectly during peptide profiling. The specific PTMs and folding of each variant cause them to display distinctly different patterns, which can then be inferred via alterations in pulse width. For example, a point mutation in a sequence—at the N-terminal end, or at the penultimate and antepenultimate positions, of the peptide—can generate an altered pulse pattern, compared to another sequence.

The next test has as its system PhTET2 and PhTET3. Kind of test: Aminopeptidase cleavage of N-terminal amino acids during dynamic sequencing (RS/NRS durations). The format is biochemical, P. horikoshii. How it is done:
To evaluate the kinetic principles of the dynamic sequencing method when applied to diverse sequences, the synthetic peptide DQQRLIFAG (SEQ ID NO: 794), corresponding to a segment of human ubiquitin, was characterized (FIGS. 3A-3D). Sequencing reactions were performed using a combination of three differentially-labeled recognizers—PS610, PS961, and PS691—and two aminopeptidases—PhTET2 and PhTET3 (Materials and Methods). The example trace in FIG. 3A starts with an NRS that corresponds to the time interval during which residues in the initial DQQ motif are present at the N-terminus. The first RS starts at 120 min, upon exposure of N-terminal arginine to recognition by PS691. Subsequent cleavage events sequentially expose N-terminal leucine, isoleucine, and phenylalanine to their corresponding recognizers, with fast transitions (average <10 s) from one RS to the next. The transition from leucine to isoleucine recognition by PS961 is readily identified as a sharp change in average PD. This overall pattern is replicated across many instances of sequencing of the same peptide, with similar PD statistics across traces, as each peptide molecule follows the same reaction pathway over the course of the sequencing run (FIGS. 3B-3C).
The distribution of RS durations across an ensemble of replicate traces defines the rate of cleavage of each recognizable NAA. […] The distribution of NRS durations reports the cleavage rate of a run of one or more non-recognized NAAs. The average NRS duration for the initial DQQ motif was 153 min (FIG. 3D). Average cleavage rates are a key parameter and are controlled by the aminopeptidase concentration in the assay (FIGS. 8D-8E). Given the exponential behavior, average RS durations of 10 to 40 min were targeted to provide sufficient time for pulsing data collection, avoid missed RSs due to rapid cleavage, and minimize excessively long RS durations. It was found helpful to visualize the sequencing profiles of peptides as kinetic signature plots—simplified trace-like representations of the time course of complete peptide sequencing containing the median PD for each RS, and the average duration of each RS and NRS (FIG. 3E). These highly characteristic features provide a wealth of sequence-dependent information for mapping traces from peptides to their proteins of origin.
A second chip check was then performed. […] Data was recorded for 15 min.

A further test has as its system PS1223. The test is described as follows: Dynamic single-molecule sequencing, recognition by PS1223. The format is binding. To be noted: recognizer PS1223, recognition of the N-terminal amino acid. The method, then:
Sequencing reactions using the recognizers PS610 (FYW), PS1220 (R), and PS1223 (LIV) were performed separately for the QP706 and QP1073 peptide fragments. Each recognizer was labeled with a unique dye and/or unique number of dyes. A scatter plot of bin ratio v. pulse duration is shown for the QP706 peptide fragment in FIG. 18A and for the QP1073 peptide fragment in FIG. 18B. In the plot of FIG. 18A, three clusters corresponding to FLE, LEQ, and RFL segments are visible. […] In the plot of FIG. 18B, two clusters corresponding to FLE and LEQ segments are visible, but there is no cluster corresponding to RFL.
In this example, sequencing reactions were conducted for 4 pairs of unmodified and citrullinated peptides: QP1028 & QP1029, QP1030 & QP1031, QP1032 & QP1033, and QP707 & QP789. […] For the QP1028 & QP1029 and QP1030 & QP1031 pairs, sequencing reactions were conducted using the PS610 (FYW) recognizer. For the QP1032 & QP1033 and QP707 & QP789 pairs, sequencing reactions were conducted using the PS1223 (LIV) recognizer.

The next test relates to PS961. Kind of test: Dynamic single-molecule sequencing, recognition by PS961. The settings on record: peptide LAQFASIAAYASDDD, PS610 and PS961, PhTET2 and PhTET3. The format is binding, Planctomycetes. The method, then:
(§1) The semiconductor chip was placed in the sequencing device and a chip check was performed to test electronic circuit function and to optimize laser coupling alignment. The chip was then removed from the device socket and the chip was washed twice with 50 μL of 70% isopropanol, followed by four washes with 30 μL of wash buffer (50 mM MOPS pH 8.0, 60 mM potassium acetate, 50 mM glucose, 20 mM magnesium acetate, and surfactant mix) through a flow cell attached to the chip. A second chip check was then performed. The laser was then blocked via an integrated software-controlled shutter, peptide complex was added to a final concentration of 1-10 nM and mixed thoroughly, and the chip was incubated for 15 min. The chip was then washed six times with wash buffer, followed by addition of an imaging solution (wash buffer with 5 mM Trolox and an oxygen scavenging system). The laser was unblocked and the occupancy percentage (target 10-30%, Poisson distributed) was recorded by acquiring a photobleaching signal from a fluorophore attached to the peptide complex during 5 min of laser illumination. For NAA recognition-only assays, after peptide loading, labeled recognizer was added to a final concentration of 50 nM PS610, 100 nM PS691, or 250 nM PS961 (as indicated according to the experiment), and data was recorded for 10 hours. For dynamic sequencing assays, after peptide loading, a mixture of labeled recognizers was added to obtain final concentrations of 50 nM PS610, 100 nM PS691, and 250 nM PS961. Data was recorded for 15 min. The laser was then blocked briefly and aminopeptidases were added to the sequencing reaction via the flow cell and mixed thoroughly (final concentration 2-8 μM PhTET2 and/or 20-80 μM PhTET3, as indicated according to the experiment). The laser was then unblocked, and data was recorded for 10 hours. For all runs, 30 μL of mineral oil was added to fluid reservoirs at each port of the flow cell to prevent evaporation during the run.
(§2) The measured signal on-chip comprises various noise components, the most dominant one being due to fluorescent emissions from diffusing recognizers in the reaction chamber. The pulse caller algorithm for a given reaction chamber starts by estimating the statistical properties of this background noise component. Once an estimate within certain error bounds has been established, the algorithm works in an online fashion observing new frames of data as they are generated. At each point in time, the algorithm maintains state indicating whether the signal is due to the background component only or a pulse from a recognizer-NAA interaction is being observed. The state transition from background to pulse is triggered using an edge detection test where the shift in signal is expected to be significant with respect to the background component's statistical distribution. The state transition from pulse to background is triggered when a small window of the most recent frames of the signal appears to conform to the background component's distribution again. The algorithm maintains an updated model of the background component as new background frames are observed. This provides robustness against drift in the signal intensity together with a feedback control loop that maintains a stable optical coupling of the laser into the chip based on any such detected drift. As detected pulses can be due to true recognizer-to-dipeptide interaction events as well as other occasional transient noise spikes, a downstream filter layer is employed to test the significance of pulse events based on their duration, intensity, and noise patterns within the context of the full timeline of the run and the entire dataset of reaction chambers.
Initial regions are determined by performing a sliding window calculation of pulse rate along the time dimension of a series of pulses. Regions with a mean pulse rate >1 pulse/min are then subdivided according to a greedy bisection approach.

The subject of the next test is PS610. The test is described as follows: Dynamic single-molecule sequencing, recognition by PS610. The class given is binding, A. tumefaciens. To be noted: peptide LAQFASIAAYASDDD, PS610 and PS961, PhTET2 and PhTET3. The method, then:
as §1, with “The laser was then blocked via an integrated software-controlled shutter, peptide complex was added to a final concentration of 1-10 nM and mixed thoroughly, and the chip was incubated for 15 min.” left out, “For NAA recognition-only assays, after peptide loading, labeled recognizer was added to a final concentration of 50 nM PS610, 100 nM PS691, or 250 nM PS961 (as indicated according to the experiment), and data was recorded for 10 hours. For dynamic sequencing assays, after peptide loading, a mixture of labeled recognizers was added to obtain final concentrations of 50 nM PS610, 100 nM PS691, and 250 nM PS961. Data was recorded for 15 min.” left out
as §2
Initial regions are determined by performing a sliding window calculation of pulse rate along the time dimension of a series of pulses. Regions with a mean pulse rate >1 pulse/min are then subdivided according to a greedy bisection approach. Here, the pulses on the left and right of each potential split are assessed for statistically significant deviation in any of four separate pulse properties—intensity, bin ratio, pulse duration, and interpulse duration—using a Mann-Whitney U Test. To define RSs, the split point with the lowest p-value for any of the four properties is used to sub-divide the region and the process continues until no regions remain with a candidate split point with p-value <10^−5 in any comparison. In this manner, transitions from one RS to the next in a region of continuous pulsing are determined a priori on the basis of changes in fluorescence properties of pulsing kinetics.

Where [1] appears, read: RS duration across replicate traces.

Where “and” joins values, the source holds several entries; their conditions need not be identical. Equal values may be shown once. Read-outs that look alike come from different tables or passages of the source. Square brackets hold non-standard residues; d marks the D form. Ends that are not written are not given here. Cit = NC(=O)NCCC[C@H](N)C(=O)O

PS1223, sequence (as listed by the source): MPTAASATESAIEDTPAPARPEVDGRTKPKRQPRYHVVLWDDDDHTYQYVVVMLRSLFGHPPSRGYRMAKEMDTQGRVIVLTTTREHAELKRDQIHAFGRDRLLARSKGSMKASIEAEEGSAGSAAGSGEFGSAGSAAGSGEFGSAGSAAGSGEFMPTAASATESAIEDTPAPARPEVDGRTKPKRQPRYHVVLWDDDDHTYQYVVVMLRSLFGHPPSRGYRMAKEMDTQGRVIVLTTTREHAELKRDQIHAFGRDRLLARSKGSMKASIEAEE
PS961, sequence (as listed by the source): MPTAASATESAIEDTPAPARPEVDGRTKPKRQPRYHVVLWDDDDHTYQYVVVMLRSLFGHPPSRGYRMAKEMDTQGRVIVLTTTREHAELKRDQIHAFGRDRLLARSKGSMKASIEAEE

Consider “LVFFAG [Peptide E22G, β-amyloid variant]”, for which, in the test on amino acid recognizers, the “Average Pulse Width, tripeptide FXX” value is 2.99 (FAG) seconds.
On to “E22Q: β-amyloid variant, tripeptide FAQ (Amyloid-beta protein 42; UniProt P05067 691-693, looked up, fragment E22Q) [Peptide E22Q]”, for which the “Average Pulse Width, tripeptide FXX” value in the test with amino acid recognizers is listed as 2.67 (FAQ) seconds.
For the substance “DQQRLIFAG [synthetic peptide corresponding to a segment of human ubiquitin]”, the “Average NRS duration for the initial DQQ motif” value in the test on PhTET2 and PhTET3 was 153 min. Also, in the test on PhTET2 and PhTET3 (setting [1]), the “Average cleavage time, N-terminal arginine” value is given as 31 min; the “Average cleavage time, N-terminal isoleucine” value came to 39 min; the “Average cleavage time, N-terminal leucine” value worked out at 54 min; the “Average cleavage time, N-terminal phenylalanine” value is reported as 86 min.
As to IRLAFAYPDDDK [QP1032], the “Pulse Width” value with PS1223 came out at 0.58 s.
With LVFFAE [WT, β-amyloid wild type], in the test on amino acid recognizers, the “Average Pulse Width, tripeptide FXX” value is given as 2.43 (FAE) seconds and the “Average Pulse Width, tripeptide LVX” value was 3.26 (LVF) seconds. Further, in the test with amino acid recognizers (listed as wild type), the “Average Pulse Width, tripeptide FXX” value turned out to be 2.43 s and the “Average Pulse Width, tripeptide LVX” value was found to be 3.26 s.
Take “ICitLAFAYPDDDK (I[Cit]LAFAYPDDDK-NH2; also: C-terminal azidolysine (general statement for all synthetic peptides)) [QP1033]”: the “Pulse Width” value in the test with PS1223 came out at 0.84 s.
In the case of “LVFFAK [Peptide E22K, β-amyloid variant]”, the “Average Pulse Width, tripeptide FXX” value with amino acid recognizers is reported as 2.79 (FAK) seconds.
For “LVPFAE [Peptide F19P, β-amyloid variant]”, the “Average Pulse Width, tripeptide LVX” value in the test on amino acid recognizers is 1.86 seconds and 1.86 (LVP) seconds.
On to LAQFASIAAYASDDD, for which the “Median PD” value is listed as 2.70 s in the test on PS961, 1.43 s in the test on PS610 (listed as FAS) and 0.66 s in the test with PS610 (listed as YAS).
